The CheMixHub viscosity set

Assay: xn = mol fraction of the nth substance listed

CC(=O)OCCC(C)C + Cc1ccc(C)cc1
viscosity [mPa·s], 101 kPa
Conditions	298.15 K	308.15 K
x1 = 0.0453	0.615	0.54
x1 = 0.1495	0.617	0.55
x1 = 0.2436	0.622	0.561
x1 = 0.3501	0.632	0.576
x1 = 0.4497	0.644	0.594
x1 = 0.4974	0.651	0.603
x1 = 0.5484	0.659	0.613
x1 = 0.6458	0.678	0.636
x1 = 0.7503	0.702	0.663
x1 = 0.8492	0.73	0.693
x1 = 0.9411	0.76	0.725

CC(=O)OCCC(C)C + Cc1cccc(C)c1
viscosity [mPa·s], 101 kPa
Conditions	298.15 K	308.15 K
x1 = 0.0471	0.58	0.529
x1 = 0.1507	0.583	0.538
x1 = 0.286	0.593	0.555
x1 = 0.3495	0.599	0.564
x1 = 0.4475	0.614	0.582
x1 = 0.5021	0.625	0.594
x1 = 0.5481	0.634	0.604
x1 = 0.6499	0.659	0.63
x1 = 0.7526	0.69	0.66
x1 = 0.8535	0.724	0.693
x1 = 0.942	0.757	0.725

CC(=O)OCCC(C)C + Cc1ccccc1
viscosity [mPa·s], 101 kPa
Conditions	298.15 K	308.15 K
x1 = 0.0474	0.555	0.505
x1 = 0.1513	0.567	0.522
x1 = 0.2512	0.581	0.54
x1 = 0.3494	0.598	0.56
x1 = 0.4458	0.616	0.581
x1 = 0.4978	0.627	0.593
x1 = 0.5497	0.639	0.606
x1 = 0.649	0.664	0.632
x1 = 0.7499	0.692	0.661
x1 = 0.855	0.726	0.695
x1 = 0.9448	0.759	0.726

CC(=O)OCCC(C)C + Cc1ccccc1C
viscosity [mPa·s], 101 kPa
Conditions	298.15 K	308.15 K
x1 = 0.045	0.754	0.657
x1 = 0.1503	0.745	0.659
x1 = 0.2526	0.738	0.66
x1 = 0.3475	0.735	0.664
x1 = 0.4468	0.735	0.67
x1 = 0.4819	0.735	0.673
x1 = 0.5459	0.737	0.679
x1 = 0.649	0.741	0.69
x1 = 0.7465	0.749	0.702
x1 = 0.8524	0.76	0.719
x1 = 0.9401	0.772	0.735

CC(=O)OCCC(C)C + ClC(Cl)(Cl)Cl
303.15 K, 101.3 kPa
Conditions	viscosity [mPa·s]
x1 = 0.1037	0.8143
x1 = 0.1985	0.8011
x1 = 0.302	0.7904
x1 = 0.4018	0.7782
x1 = 0.5027	0.7656
x1 = 0.603	0.7549
x1 = 0.7015	0.7451
x1 = 0.7985	0.7325
x1 = 0.9013	0.7155

CC(=O)OCCC(C)C + ClC(Cl)Cl
303.15 K, 101.3 kPa
Conditions	viscosity [mPa·s]
x1 = 0.1037	0.5821
x1 = 0.2076	0.6427
x1 = 0.301	0.6846
x1 = 0.3983	0.7145
x1 = 0.5044	0.7309
x1 = 0.6009	0.7377
x1 = 0.6966	0.7338
x1 = 0.8058	0.7252
x1 = 0.8911	0.7143
